Experimental data: patent US10407467B2, “Polymyxin derivatives and their use in combination therapy together with different antibiotics” (priority 2013, dated 2019)
Counter-ions that a name gives are not always drawn. Like-named read-outs stand apart in the source and are kept apart here. Numbered stars: 1 amine (or outer) side, 2 acyl side, 3 side chain; on linkers, the order of the positions; unused ones are H or OH. Bridge positions count the residues as written; N and C are the ends. Square brackets hold non-standard residues; d marks the D form. Peptide text beside a SMILES is read from it. * marks the point of attachment. ξ: configuration not given here. ξβ3hPhg = O=C(CC(N[*:1])c1ccccc1)[*:2]; X6 = N[C@@H](CC(=O)*)c1ccc2ccccc2c1; Thr(3ξ) = CC(O)[C@H](N)C(=O)O; X10 = NC1(CC(=O)*)CCCCC1; Dab = NCC[C@H](N)C(=O)O

Assays:
Escherichia coli [1] = assay: MIC, compound in combination with a second agent (broth microdilution); assay type: cell-based; conditions: 1:1 (wt:wt) combination with Rifampicin, MIC = total drug concentration; for MIC E. coli ATCC25922: strain ATCC25922
Method in brief: (§1)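 Susceptibility was tested on up to four strains of each pathogen with the compound paired 1:1 by weight alongside another antibacterial. Values count both components together and use the lower duplicate if replicates agreed within 2-fold.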

Klebsiella pneumoniae [2] = assay: as above; assay type: cell-based; conditions: 1:1 (wt:wt) combination with Rifampicin, MIC = total drug concentration; for MIC K. pneumoniae CCUG-59348: strain CCUG-59348; for MIC K. pneumoniae NCTC 13438: strain NCTC 13438; for MIC K. pneumoniae ATCC-BAA-2146: strain ATCC-BAA-2146
Method in brief: as §1

Pseudomonas aeruginosa [3] = assay: as above; assay type: cell-based; conditions: 1:1 (wt:wt) combination with Rifampicin, MIC = total drug concentration; for MIC P. aeruginosa ATCC 27853: strain ATCC 27853; for MIC P. aeruginosa ATCC-47: strain ATCC-47; for MIC P. aeruginosa CCUG 59626: strain CCUG 59626; for MIC P. aeruginosa ATCC CRM-9027: strain ATCC CRM-9027
Method in brief: as §1

Acinetobacter baumannii [4] = assay: as above; assay type: cell-based; conditions: 1:1 (wt:wt) combination with Rifampicin, MIC = total drug concentration; for MIC A. baumannii CCUG57249: strain CCUG57249; for MIC A. baumannii NCTC 13424: strain NCTC 13424; for MIC A. baumannii ATCC BAA-747: strain ATCC BAA-747; for MIC A. baumannii NCTC 13423: strain NCTC 13423
Method in brief: as §1

P. aeruginosa ATCC 27853 = conditions: for Log reduction from vehicle (CFU/g): ATCC 27853, in vivo, iv
Escherichia coli [5] = assay: MIC, sole activity (no second agent); assay type: cell-based; conditions: in the absence of Rifampicin; for MIC E. coli ATCC25922: strain ATCC25922; for MIC E. coli NCTC9001: strain NCTC9001
Method in brief: (§2)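 First, isolated colonies grown 18-24 hours on Mueller-Hinton agar were suspended to 0.5 McFarland; next, up to four strains per pathogen were tested in duplicate in cation-adjusted MHB; finally, the lower concordant value or modal repeat value was reported against Polymyxin B.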

Klebsiella pneumoniae [6] = assay: MIC, sole activity (no second agent); assay type: cell-based; conditions: in the absence of Rifampicin; for MIC K. pneumoniae CCUG-59348: strain CCUG-59348; for MIC K. pneumoniae NCTC-13438: strain NCTC-13438; for MIC K. pneumoniae ATCC-BAA2146: strain ATCC-BAA2146
Method in brief: as §2

Pseudomonas aeruginosa [7] = assay: MIC, sole activity (no second agent); assay type: cell-based; conditions: in the absence of Rifampicin; for MIC P. aeruginosa ATCC 27853: strain ATCC27853; for MIC P. aeruginosa ATCC-47: strain ATCC-47; for MIC P. aeruginosa CCUG 59626: strain CCUG 59626
Method in brief: as §2

Acinetobacter baumannii [8] = assay: MIC, sole activity (no second agent); assay type: cell-based; conditions: in the absence of Rifampicin; for MIC A. baumannii ATCC13424: strain ATCC13424; for MIC A. baumannii CCUG57249: strain CCUG 57249
Method in brief: as §2

[9] = 2 or 4 mg/kg IV three times at 1, 3.5 and 6 hours post infection

Row | SMILES | MIC E. coli ATCC25922 (Escherichia coli [1]) | MIC K. pneumoniae CCUG-59348 (Klebsiella pneumoniae [2]) | MIC K. pneumoniae NCTC 13438 (Klebsiella pneumoniae [2]) | MIC P. aeruginosa ATCC 27853 (Pseudomonas aeruginosa [3]) | MIC P. aeruginosa ATCC-47 (Pseudomonas aeruginosa [3]) | MIC P. aeruginosa CCUG 59626 (Pseudomonas aeruginosa [3]) | MIC A. baumannii CCUG57249 (Acinetobacter baumannii [4]) | MIC A. baumannii NCTC 13424 (Acinetobacter baumannii [4]) | effect on thigh burdens (P. aeruginosa ATCC 27853; [9]) | Log reduction from vehicle (CFU/g) (P. aeruginosa ATCC 27853; 2 mg/kg, 6 h) | Log reduction from vehicle (CFU/g) (P. aeruginosa ATCC 27853; 4 mg/kg, 6 h) | MIC E. coli ATCC25922 (Escherichia coli [5]) | MIC K. pneumoniae CCUG-59348 (Klebsiella pneumoniae [6]) | MIC P. aeruginosa ATCC-47 (Pseudomonas aeruginosa [7]) | MIC P. aeruginosa CCUG 59626 (Pseudomonas aeruginosa [7]) | MIC A. baumannii ATCC13424 (Acinetobacter baumannii [8]) | MIC A. baumannii CCUG57249 (Acinetobacter baumannii [8]) | MIC K. pneumoniae ATCC-BAA-2146 (Klebsiella pneumoniae [2]) | MIC P. aeruginosa ATCC CRM-9027 (Pseudomonas aeruginosa [3]) | MIC A. baumannii ATCC BAA-747 (Acinetobacter baumannii [4]) | also measured
1 | CC(C)C[C@@H]1NC(=O)[C@@H](Cc2ccccc2)NC(=O)[C@H](CCN)NC(=O)[C@@H](NC(=O)[C@H](CCN)NC(=O)[C@@H](NC(=O)C(O)C2CCCCC2)C(C)O)CCNC(=O)[C@H](C(C)O)NC(=O)[C@H](CCN)NC(=O)[C@H](CCN)NC1=O (mixture of isomers) [Example 27, 2-(RS)-(2-Hydroxy-2-cyclohexyl)ethanoyl polymyxin B nonapeptide] | 0.25 micrograms/mL | 2 micrograms/mL | 0.5 micrograms/mL | 0.25 micrograms/mL | 0.5 micrograms/mL | 0.5 micrograms/mL | 0.5 micrograms/mL | 0.5 micrograms/mL | did not reduce thigh burdens significantly | 0.24 log CFU/g | −0.58 log CFU/g | 2 micrograms/mL | >8 micrograms/mL | 2 micrograms/mL | 0.25 micrograms/mL | 4 micrograms/mL | 4 micrograms/mL |  |  |  | MIC K. pneumoniae ATCC 4352 (Klebsiella pneumoniae [2]; strain ATCC 4352): 0.125 micrograms/mL; MIC K. pneumoniae ATCC 4352 (Klebsiella pneumoniae [6]; strain ATCC 4352): 2 micrograms/mL; MIC K. pneumoniae NCTC-13438 (Klebsiella pneumoniae [6]): >8 micrograms/mL; MIC P. aeruginosa ATCC 27853 (Pseudomonas aeruginosa [7]): 0.125 micrograms/mL
2 | CC(C)C[C@@H]1NC(=O)[C@@H](Cc2ccccc2)NC(=O)[C@H](CCN)NC(=O)[C@@H](NC(=O)[C@H](CCN)NC(=O)[C@@H](NC(=O)CC(N)c2ccccc2)C(C)O)CCNC(=O)[C@H](C(C)O)NC(=O)[C@H](CCN)NC(=O)[C@H](CCN)NC1=O (stereo partly drawn) [Example 28, [3-(R,S)-3-Amino-3-phenylpropanoyl] Polymyxin B nonapeptide] (ξβ3hPhg-[Thr(3ξ)][Dab][Dab][Dab][dF]L[Dab][Dab][Thr(3ξ)]; lactam 3-C) | 0.125 micrograms/mL | 2 micrograms/mL | 0.25 micrograms/mL | 0.125 micrograms/mL | 0.5 micrograms/mL | 0.25 micrograms/mL | 0.125 micrograms/mL | 0.125 micrograms/mL |  |  |  |  | >32 micrograms/mL | 1 micrograms/mL | 0.5 micrograms/mL | 1 micrograms/mL | 1 micrograms/mL | 0.5 micrograms/mL | 0.5 micrograms/mL | 0.125 micrograms/mL | MIC A. baumannii NCTC 13423 (Acinetobacter baumannii [4]): ≤0.06 micrograms/mL; Log reduction from vehicle (CFU/g) (P. aeruginosa ATCC 27853; 2 mg/kg, 9 h): −0.38 log CFU/g; Log reduction from vehicle (CFU/g) (P. aeruginosa ATCC 27853; 4 mg/kg, 9 h): 0.20 log CFU/g; MIC E. coli NCTC9001 (Escherichia coli [5]): 32 micrograms/mL; MIC K. pneumoniae ATCC-BAA2146 (Klebsiella pneumoniae [6]): 32 micrograms/mL; MIC K. pneumoniae NCTC-13438 (Klebsiella pneumoniae [6]): 32 micrograms/mL
3 | CC(C)C[C@@H]1NC(=O)[C@@H](Cc2ccccc2)NC(=O)[C@H](CCN)NC(=O)[C@@H](NC(=O)[C@H](CCN)NC(=O)[C@@H](NC(=O)C[C@H](N)c2ccc3ccccc3c2)C(C)O)CCNC(=O)[C@H](C(C)O)NC(=O)[C@H](CCN)NC(=O)[C@H](CCN)NC1=O (stereo partly drawn) [Example 38, (S)-3-Amino-3-(naphthalene-2-yl)propanoyl polymyxin B nonapeptide, trifluoroacetate salt] (X6-[Thr(3ξ)][Dab][Dab][Dab][dF]L[Dab][Dab][Thr(3ξ)]; lactam 3-C) | 0.5 micrograms/mL | 2 micrograms/mL |  | 0.25 micrograms/mL | 0.25 micrograms/mL | 0.5 micrograms/mL | 0.25 micrograms/mL | 0.25 micrograms/mL |  | −0.37 log CFU/g | 4.94 log CFU/g | 4 micrograms/mL | >32 micrograms/mL | 0.25 micrograms/mL | 0.125 micrograms/mL | 1 micrograms/mL | 4 micrograms/mL | 0.5 micrograms/mL | 0.5 micrograms/mL | 0.25 micrograms/mL | effect on thigh burdens (P. aeruginosa ATCC 27853; 2 mg/kg IV three times at 1, 3.5 and 6 hours post infection): did not affect thigh burdens significantly; reduction of thigh burdens (P. aeruginosa ATCC 27853; 4 mg/kg IV three times at 1, 3.5 and 6 hours post infection): 4.9 Log10 CFU/g; MIC E. coli NCTC9001 (Escherichia coli [5]): 8 micrograms/mL; MIC K. pneumoniae ATCC-BAA2146 (Klebsiella pneumoniae [6]): 8 micrograms/mL; MIC P. aeruginosa ATCC 27853 (Pseudomonas aeruginosa [7]): 0.25 micrograms/mL; MIC P. aeruginosa ATCCCRM-9027 (Pseudomonas aeruginosa [7]; strain ATCCCRM-9027): 0.25 micrograms/mL; MIC A. baumannii ATCCBAA-747 (Acinetobacter baumannii [8]; strain ATCCBAA-747): 0.5 micrograms/mL
4 | CC(C)C[C@@H]1NC(=O)[C@@H](Cc2ccccc2)NC(=O)[C@H](CCN)NC(=O)[C@@H](NC(=O)[C@H](CCN)NC(=O)[C@@H](NC(=O)CC2(N)CCCCC2)C(C)O)CCNC(=O)[C@H](C(C)O)NC(=O)[C@H](CCN)NC(=O)[C@H](CCN)NC1=O (some centres unmarked) [Example 42, 2-(1-aminocyclohexyl) ethanoyl Polymyxin B nonapeptide TFA salt] (X10-[Thr(3ξ)][Dab][Dab][Dab][dF]L[Dab][Dab][Thr(3ξ)]; lactam 3-C) | ≤0.06 micrograms/mL | 4 micrograms/mL |  | 0.125 micrograms/mL | ≤0.06 micrograms/mL | 0.125 micrograms/mL | ≤0.06 micrograms/mL | ≤0.06 micrograms/mL | did not reduce thigh burdens significantly | −0.03 log CFU/g | −0.28 log CFU/g |  |  |  |  |  |  | 0.125 micrograms/mL | 0.25 micrograms/mL | 0.125 micrograms/mL | MIC E. coli NCTC9001 (Escherichia coli [1]; strain NCTC9001): 0.125 micrograms/mL; MIC A. baumannii NCTC 13423 (Acinetobacter baumannii [4]): ≤0.06 micrograms/mL
